In patent US8653023B1, “Dual beneficial effect of dopamine enhancing and neuroprotective actions of PKC delta inhibitors for treatment of Parkinson's disease” (Iowa State University Research Foundation, Inc., priority 2006, dated 2014):

What was measured:
PKCδ [1] = target: T1, PKCδ (Mus musculus, UniProt P28867); experiment: PKCδ immunoprecipitation kinase assay on substantia nigra of rottlerin-treated mice; type: in vivo; conditions: 5 days
T1 construct: PKCδ was immunoprecipitated from SN lysates of both rottlerin-mice and vehicle-mice using PKCδ specific polyclonal antibody; from tissue; host or cells: substantia nigra of C57 black mice
T1 sequence (P28867 whole entry): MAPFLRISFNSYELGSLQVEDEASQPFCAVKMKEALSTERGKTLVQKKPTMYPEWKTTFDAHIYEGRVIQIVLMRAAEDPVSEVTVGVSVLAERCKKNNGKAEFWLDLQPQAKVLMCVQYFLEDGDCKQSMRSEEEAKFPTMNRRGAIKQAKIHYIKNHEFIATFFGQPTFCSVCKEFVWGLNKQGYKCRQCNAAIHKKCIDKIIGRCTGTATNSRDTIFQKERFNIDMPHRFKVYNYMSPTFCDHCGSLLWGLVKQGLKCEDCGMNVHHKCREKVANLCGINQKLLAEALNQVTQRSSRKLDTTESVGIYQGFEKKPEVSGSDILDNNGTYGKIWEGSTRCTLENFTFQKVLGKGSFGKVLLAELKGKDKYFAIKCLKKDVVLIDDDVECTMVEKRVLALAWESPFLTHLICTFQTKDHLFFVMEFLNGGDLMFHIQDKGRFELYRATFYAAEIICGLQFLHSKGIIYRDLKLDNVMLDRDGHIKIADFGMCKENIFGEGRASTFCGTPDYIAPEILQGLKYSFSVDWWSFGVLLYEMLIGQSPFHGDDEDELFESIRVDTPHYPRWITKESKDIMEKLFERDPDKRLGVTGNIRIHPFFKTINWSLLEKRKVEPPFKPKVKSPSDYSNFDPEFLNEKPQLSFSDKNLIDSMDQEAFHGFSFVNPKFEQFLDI
Description: PKCδ enzymatic activity was assayed using an immunoprecipitation kinase assay as described by Reyland et al. (Reyland, Anderson et al. 1999). Briefly, after treatment with rottlerin, substantia nigra brain tissue were washed once with PBS and resuspended in 1 ml of PKC lysis buffer (25 mM HEPES, pH 7.5, 20 mM β-glycerophosphate, 0.1 mM sodium orthovanadate, 0.1% Triton X-100, 0.3 M NaCl, 1.5 mM MgCl2, 0.2 mM EDTA, 0.5 mM DTT, 10 mM NaF, and 4 μg/ml each aprotonin and leupeptin). The lysates were allowed to sit on ice for 30 min and centrifuged at 13,000×g for 5 min, and the supernatants were collected as cytosolic fraction. Protein concentration was determined using a Bradford assay. Cytosolic protein (0.25-0.5 mg) was immunoprecipitated overnight at 4° C. using 2 μg of anti-PKCδ antibody. The immunoprecipitates were then incubated with Protein-A Sepharose (Sigma) for 1 hr at 4° C. The protein A bound antigen-antibody complexes were then washed three times with PKC lysis buffer, three times with 2× kinase buffer (40 mM Tris, pH 7.4, 20 mM MgCl2, 20 μM ATP, and 2.5 mM CaCl2), and resuspended in 20 μl of 2× kinase buffer. Reaction was started by adding 20 μl of reaction buffer containing 0.4 mg Histone H1, 50 μg/ml phosphatidylserine, 4.1 μM dioleoylglycerol, and 5 μCi of [γ-^32P] ATP (3000 Ci/mM) to the immunoprecipitated samples and incubated for 10 min at 30° C. SDS gel-loading buffer (2×) was added to terminate the reaction, the samples were boiled for 5 min, and the products were separated on a 12.5% SDS-PAGE gel. The H1 phosphorylated bands were detected using a Personal Molecular Imager (FX model; Bio-Rad), and quantification was done using Quantity One 4.2.0 software.

cells = conditions: cited from earlier work
PKA = conditions: cited from earlier work
[2] = tested on: MPTP-treated C57 black mice; experiment: MPTP-induced striatal dopamine depletion (HPLC-EC); type: in vivo
Description: Six to 8-week-old […] mice weighing 30 g were housed in standard conditions: constant temperature (22±1° C.), humidity (relative, 30%) and a 12-h light/dark cycle, and were allowed free access to food and water. The animals and protocol procedures were approved and supervised by the Committee on Animal Care (COAC) at the Iowa State University. Rottlerin was dissolved in 1% dimethyl sulfoxide (DMSO) and was administered intraperitoneally at various doses. An equal volume of DMSO was given to controls. Rottlerin and DMSO administrations were started 24 h before the injections of the MPTP and continued for 5 days in the MPTP model. In the chronic regimens of MPTP administration, MPTP in phosphate-buffered saline (PBS) was injected intraperitoneally at doses of 30 mg/kg, once a day. Mice were sacrificed 2 days after the MPTP injections, and the striata were dissected for catecholamine analysis. Additionally, rottlerin alone (0.3-20 mg/kg) was administered via intraperitoneally or orally and then brain tissues were subjected to neurochemical analyses (FIG. 8). The mesencephalons were fixed in 4% paraformaldehyde for 5 days for tyrosine hydroxylase (TH) immunostaining.
DA and DOPAC levels in brain striatal tissues were determined by high-performance liquid chromatography with electrochemical detection (HPLC-EC); samples were prepared as described previously (Kitazawa, Anantharam et al. 2001). Briefly, neurotransmitters were extracted from samples using 0.1M perchloric acid containing 0.05% Na2EDTA and 0.1% Na2S2O5. The extracts were filtered in 0.22 micron spin tubes and 20 μl of the samples was loaded for analysis. DA and DOPAC were separated isocratically by a reversed-phase column with a flow rate of 0.7 ml/min. An HPLC system (ESA Inc., Bedford, Mass.) with an ESA automatic sampler (model 542) was used for these experiments. The electrochemical detection (EC) system consisted of an ESA coulochem model 5100A with a microanalysis cell model 5014A and a guard cell model 5020 (ESA Inc., Bedford, Mass.). The DA and DOPAC levels were measured as pg/mg protein and expressed as percent of control.

[3] = tested on: bone marrow-derived macrophages; conditions: cited from earlier work
SRC kinase = SRC kinase (Homo sapiens, UniProt P12931); conditions: cited from earlier work
Chain of SRC kinase (P12931 whole entry): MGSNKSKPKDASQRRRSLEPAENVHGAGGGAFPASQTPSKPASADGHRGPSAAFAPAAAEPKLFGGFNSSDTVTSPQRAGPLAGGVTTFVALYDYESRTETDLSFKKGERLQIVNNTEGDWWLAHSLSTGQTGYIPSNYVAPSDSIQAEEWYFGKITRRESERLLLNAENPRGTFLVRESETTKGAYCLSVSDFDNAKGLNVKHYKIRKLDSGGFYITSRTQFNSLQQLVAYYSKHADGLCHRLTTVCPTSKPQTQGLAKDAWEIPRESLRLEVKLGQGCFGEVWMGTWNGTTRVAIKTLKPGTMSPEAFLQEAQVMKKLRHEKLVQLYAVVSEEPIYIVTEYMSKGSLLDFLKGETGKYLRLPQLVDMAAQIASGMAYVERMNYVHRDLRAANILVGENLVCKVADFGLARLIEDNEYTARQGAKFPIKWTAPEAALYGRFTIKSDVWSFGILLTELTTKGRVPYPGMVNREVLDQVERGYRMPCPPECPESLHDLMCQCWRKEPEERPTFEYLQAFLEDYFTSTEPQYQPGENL

PKCε, ζ, or η = conditions: cited from earlier work
casein kinase II = conditions: cited from earlier work
PKCδ [4] = conditions: pretreatment, dose-dependent; cited from earlier work
N27 cells = experiment: Cellular DA and DOPAC levels in N27 cells (HPLC-EC); type: cell-based, rat; conditions: N27 cells; rottlerin vs vehicle, PKCδ-DN vs LacZ
Description: (§1) PC12 cells, differentiated N27 dopaminergic cells and primary mesencephalic neurons were exposed to 1-10 μM rottlerin for the duration of the experiment. DMSO (0.01%) was used as vehicle control. PKCδ-DN- and Lac Z-expressing N27 cells were only treated with 0.01% DMSO. […] Untreated or vehicle treated cells were used as control samples.
DA and DOPAC levels in PC12, N27 cells and in brain striatal tissues were determined by high-performance liquid chromatography with electrochemical detection (HPLC-EC); samples were prepared as described previously (Kitazawa et al., 2001). The DA and DOPAC levels were measured as pg/mg protein and expressed as percent of control.

[5] = tested on: tyrosine hydroxylase (TH); experiment: TH activity (DOPA levels after NSD-1015) in PC12 cells; type: cell-based; conditions: 2 mM NSD-1015
Description: as §1

PP2A = PP2A phosphatase activity in N27 cells (Serine/Threonine phosphatase assay kit); type: cell-based, rat; conditions: rottlerin vs DMSO, PKCδ-DN vs LacZ
Description: To determine PP2A phosphatase activity, we used the Serine/Threonine phosphatase assay kit from Promega. Briefly, N27 cells and substantia nigral tissue from mouse brain were homogenized in lysis buffer (25 mM Tris-HCl, 10 mM β-mercaptoethanol, 2 mM EDTA, protease inhibitor) supplied with the kit. After centrifugation, the supernatants were used for the assay. PP2A activity was determined by measuring the amount of free phosphate generated in a reaction by measuring the absorbance of a molybdate:malachite green: phosphate complex at 600 nm using the Spectramax plate reader (Molecular Devices). The effective range for the detection of phosphate released in this assay is 100-4,000 pmol of phosphate.

CC(=O)c1c(O)c(C)c(O)c(Cc2c(O)c3c(c(C(=O)/C=C/c4ccccc4)c2O)OC(C)(C)C=C3)c1O [rottlerin]
reduction in the kinase activity in SN (PKCδ [1]; i.p. injection with 3 mg rottlerin): more than 30%
reduction in the kinase activity in SN (PKCδ [1]; i.p. injection with 7 mg rottlerin): more than 30%
decrease in protein kinase activity in SN (phosphorylated histone H1 bands) (PKCδ [1]; orally treated with 10 mg rottlerin): 40%
decrease in protein kinase activity in SN (phosphorylated histone H1 bands) (PKCδ [1]; orally treated with 20 mg rottlerin): 50%
asbestos-induced apoptosis (cells): inhibited
inhibition (PKA): weak inhibitor
protection against dopamine loss induced by MPTP toxicity in striatum ([2]; 20 mg/kg rottlerin): 50%
MPTP-induced decrease in dopamine and metabolite levels ([2]; oral 20 mg/kg and i.p. 3, 7 and 10 mg/kg rottlerin, dose-dependent): significantly antagonized
dopamine level in striatum ([2]; rottlerin 20 mg/kg + MPTP 30 mg/kg for 5 days): 112.8±25.32 pg/mg tissue weight
silica-induced apoptosis as measured by DNA fragmentation [3]: reduced
inhibition (SRC kinase): inactive
fold more potent on PKCδ than on PKCε, ζ, or η (PKCε, ζ, or η): 13- to 33 fold
inhibition (casein kinase II): weak inhibitor
MMT induced accumulation of PKCδ cleavage product and increased kinase activity (PKCδ [4]): prevented
DA level (N27 cells): 2748±208 pg/μg protein
DOPAC levels (N27 cells): 2564±848.19 pg/μg protein
increase in DA level (N27 cells): 4 fold
increase in DOPAC levels (N27 cells): 4 fold
TH activity ([5]; 1 μM rottlerin 3 hr): 2091.09±80.17 pg DOPA/10^6 cells/hr
TH activity ([5]; 3 μM rottlerin 3 hr): 3045±75.31 pg DOPA/10^6 cells/hr
reduction of PP2A activity (PP2A): 31%
